According to publication PMC4728504, “Determination of FVIIa-sTF Inhibitors in Toxic Microcystis Cyanobacteria by LC-MS Technique” (Marine Drugs, 2015):
“Also recorded” adds a separate entry of the source. Like-named read-outs stand apart in the source and are kept apart here.

What was measured:
fVIIa-sTF [1] = settings: P1 moiety; cited from earlier work
Excerpt: We have detected aeruginosins 98A (36) and B (37) from M. aeruginosa NIES-98. The MeOH fractions from the aforementioned cyanobacteria are not active in the fVIIa-sTF assay. Thus, from our readings, we compare the fVIIa-sTF inhibitory activity of aeruginosins to phenylamidine. […] The presence of the cyclic amino alcohol moiety in aeruginosins may contribute to efficient binding against fVIIa. However, this hypothesis needs to be established by a structure–ac ...

fVIIa [2] = target: T1, fVIIa (Homo sapiens, UniProt P08709); assay: fVIIa inhibitory assay (cephalin buffer, without sTF); type: biochemical; settings: for fVIIa inhibition, slow binding, in words: 10 and 1 µg/mL, L-α-cephalin buffer, without sTF, three to six hours; for fVIIa inhibitory activity, in words: concentration not given
T1 construct: purchased Enzyme Research Laboratories, South Bend, IN, USA HFVIIa
Description: (§1) All assay experiments were done in a cold condition at 4 °C using an ice bucket until pre-incubation and reaction at 37 °C.
(§2) The fVIIa and fVIIa-sTF assays used L-α-cephalin buffer solution. The fVIIa-sTF assay was performed following the procedure by Nakagura et al. with modification. The L-α-cephalin as buffer solution was prepared as follows: Buffer (A): Five hundred milliliters (500 mL) of water was added to 6.057 g of Tris (hydroxymethyl)aminomethane (Nacalai Tesque, Kyoto, Japan) to make 100 mM Tris-HCl solution; 4.383 g NaCl (Nacalai Tesque) was added to the resulting solution to make […], and 500 mg bovine serum albumin (BSA) (Sigma, A7284, St. Louis, MO, USA) was added. The pH was adjusted to 7.40; Buffer (B): A 200 mL of Buffer A was added to 0.3329 g of CaCl2 (Nacalai Tesque). The resulting solution (Buffer B) was adjusted to pH 7.48 before it was stored at 4 °C in preparation for the next day experiment. A 30 µg/mL 3-sn-phosphatidylethanolamine from the bovine brain (Sigma, USA) or L-α-cephalin was added to Buffer B on the day of the experiment.
The 80 µL 3-sn-phosphatidylethanolamine buffer, 50 µL of […] fVIIa enzyme in a buffer, and 20 µL of sample solution were dispensed in each well of a 96-well plate (Iwaki: 3881-096, Tokyo, Japan). The 96-well plate with the solution was pre-incubated at 37 °C for 5 min separately together with 1 mM of Chromozyme t-PA (N-Methylsulfonyl-D-Phe-Gly-Arg-4-nitranilide acetate), from Roche Diagnostics (Mannheim, Germany), dissolved in water as a substrate. The 50 µL of the substrate was added, and the mixture was agitated to start the reaction.
(§3) The human factor VIIa (HFVIIa) enzyme, purchased from Enzyme Research Laboratories, South Bend, IN, USA, was added and adjusted with 20 mM Tris-HCl/0.1 M NaCl/pH 7.4. The final enzyme concentration should be 95.06 µg/mL. The 100 µL enzyme solutions were stored in plastic cryogenic vials (Iwaki: 2712-002, Tokyo, Japan) at −80 °C until use. The fVIIa enzyme, 95.06 µg/mL, and 100 µL volume solution was added to 7.822 mL of 3-sn-phosphatidylethanolamine buffer on the assay preparation.

fVIIa-sTF [3] = assay: fVIIa-sTF inhibitory assay; type: biochemical, human
Description: as §1, §2
The same buffer preparation for fVIIa assay was used for the fVIIa-sTF inhibitory assay. The fVIIa: sTF ratio was 0.30 µg/mL: 0.39 µg/mL, and was prepared in Section 3.3.2.
as §3
The sTF or Recombinant Human Soluble Tissue Factor (F3-28H) or Human F3 was purchased from Creative Biomart, Shirley, NY, USA. The sTF was added with 10 mM PBS, pH 7.4, to make […] (25.624 µg/mL), and transferred in 300 µL volumes in plastic cryogenic vials (Iwaki: 2712-002, Tokyo, Japan), stored at −80 °C until use. The sTF solution (25.624 µg/mL, 300 µL) was added to 4.7 mL of the 3-sn-phosphatidylethanolamine buffer in an amber bottle before use.
The 30 µL buffer, 100 µL fVIIa-sTF, and 20 µL sample solutions were added to a well in a 96-well plate. The solution was pre-incubated at 37 °C for 5 min, together with 1 mM Chromozym t-PA in water as a substrate. A 50-µL substrate was added to start the reaction, agitated, and the absorbance was monitored at 405 nm using Thermo Scientific Multiskan FC microplate photometer.

thrombin = thrombin (Homo sapiens, UniProt P00734); assay: Thrombin inhibitory assay; type: biochemical
fVIIa [4] = settings: cited from earlier work

T1 sequence (P08709 213-466): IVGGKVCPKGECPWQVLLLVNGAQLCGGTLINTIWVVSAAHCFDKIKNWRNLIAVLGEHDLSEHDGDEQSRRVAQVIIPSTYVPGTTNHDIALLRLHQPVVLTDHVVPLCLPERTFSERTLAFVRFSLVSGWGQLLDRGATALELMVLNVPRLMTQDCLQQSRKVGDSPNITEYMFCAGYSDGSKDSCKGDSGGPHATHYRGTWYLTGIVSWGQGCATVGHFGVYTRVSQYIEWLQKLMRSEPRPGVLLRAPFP
T1 sequence (P08709 61-212): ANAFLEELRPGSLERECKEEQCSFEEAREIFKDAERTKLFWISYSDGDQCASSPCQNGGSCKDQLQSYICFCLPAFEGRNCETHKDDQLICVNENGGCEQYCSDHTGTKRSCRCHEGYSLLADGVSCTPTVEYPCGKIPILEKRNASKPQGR

N=C(N)c1ccccc1 [phenylamidine]
fVIIa-sTF inhibitory activity, in words (fVIIa-sTF [1]): inhibitory activity against fVIIa-sTF

aeruginopeptin 228-B [Compound 3]
fVIIa inhibition, slow binding, in words (fVIIa [2]): active against fVIIa with slow binding and inhibition from three to six hours

aeruginosin K139 [Compound 30]
active compound attributed by LC-MS in fVIIa-sTF active fraction (fVIIa-sTF [3]; dereplication by LC-MS of active fraction, not tested as pure compound): active component; also recorded: active compound | fVIIa inhibitory activity, in words (fVIIa [2]): dual inhibitory activity | thrombin inhibitory activity, in words (thrombin; aeruginosins or MeOH fractions, concentration not given): dual inhibitory activity

microcystin-LR [Compound 18, reference compound]
fVIIa-sTF inhibition, in words (fVIIa-sTF [3]): not active

microcystin-RR [Compound 19, reference compound]
fVIIa-sTF inhibition, in words (fVIIa-sTF [3]): not active

microcystin-YR [Compound 20, reference compound]
fVIIa-sTF inhibition, in words (fVIIa-sTF [3]): not active

oscillapeptilide 97A [Compound 11]
fVIIa inhibition, slow binding, in words (fVIIa [2]): active against fVIIa with slow binding and inhibition from three to six hours

oscillapeptin G [Compound 10]
fVIIa inhibition, slow binding, in words (fVIIa [2]): active against fVIIa with slow binding and inhibition from three to six hours

oscillarin
fVIIa inhibition, in words (fVIIa [4]): fVIIa and thrombin inhibitors

spumigins A [Compound 21]
fVIIa-sTF inhibition, in words (fVIIa-sTF [3]; pure compounds or compound class): do not inhibit | fVIIa inhibitory activity, in words (fVIIa [2]): do not inhibit | thrombin inhibition, in words (thrombin; 100 µg/mL, after a long-term storage): active
